From US9732075B2, “Benzimidazole-proline derivatives” (IDORSIA PHARMACEUTICALS LTD, priority 2012, dated 2017)

Assays:
[1] = molecular target: human orexin-1 receptor (Homo sapiens (Human), UniProt O43613); assay: In vitro assay: intracellular calcium measurements (FLIPR), antagonistic activity; type: cell-based; conditions: CHO cells expressing human orexin-1 receptor, orexin-A agonist, geometric mean, read-out: IC50 Ox1
Outline: (§1)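 In this FLIPR calcium assay, antagonists were given 120 min on CHO cells with human OX1 or OX2 receptor before orexin-A (3 nM final) was added. Peak fluorescence was measured at 1 s intervals against the uninhibited agonist peak, and IC50s were averaged geometrically.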

[2] = molecular target: human orexin-2 receptor (Homo sapiens (Human), UniProt O43614); assay: as above; type: cell-based; conditions: CHO cells expressing human orexin-2 receptor, orexin-A agonist, geometric mean, read-out: IC50 Ox2
Chain of human orexin-2 receptor (O43614 whole entry): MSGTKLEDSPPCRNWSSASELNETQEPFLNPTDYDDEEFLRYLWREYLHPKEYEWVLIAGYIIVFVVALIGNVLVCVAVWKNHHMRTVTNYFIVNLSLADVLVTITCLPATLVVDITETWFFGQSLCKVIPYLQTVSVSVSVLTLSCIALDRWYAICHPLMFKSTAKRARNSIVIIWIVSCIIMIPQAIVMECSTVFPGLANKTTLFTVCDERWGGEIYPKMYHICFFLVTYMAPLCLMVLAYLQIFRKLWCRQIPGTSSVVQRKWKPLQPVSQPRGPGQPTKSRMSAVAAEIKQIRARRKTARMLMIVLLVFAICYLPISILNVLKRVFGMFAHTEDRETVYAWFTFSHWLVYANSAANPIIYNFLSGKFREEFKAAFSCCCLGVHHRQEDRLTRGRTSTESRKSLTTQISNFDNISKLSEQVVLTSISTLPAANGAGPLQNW
Outline: as §1

Chain of human orexin-1 receptor (O43613 whole entry): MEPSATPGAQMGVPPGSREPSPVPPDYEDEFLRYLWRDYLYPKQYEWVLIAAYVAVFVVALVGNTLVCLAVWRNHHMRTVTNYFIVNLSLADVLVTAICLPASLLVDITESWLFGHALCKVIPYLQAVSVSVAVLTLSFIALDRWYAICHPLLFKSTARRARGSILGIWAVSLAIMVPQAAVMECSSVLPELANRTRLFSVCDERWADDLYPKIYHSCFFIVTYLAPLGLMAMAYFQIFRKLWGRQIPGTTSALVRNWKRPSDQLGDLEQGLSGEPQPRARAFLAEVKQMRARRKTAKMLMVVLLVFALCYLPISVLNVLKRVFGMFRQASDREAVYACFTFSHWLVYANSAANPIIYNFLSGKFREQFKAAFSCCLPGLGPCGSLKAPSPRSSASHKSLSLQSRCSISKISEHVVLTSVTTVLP

Compound	IC50 [1] [nM]	IC50 [2] [nM]
Cc1nc(C(=O)N2CC[C@H](C)[C@H]2c2nc3c(C(F)(F)F)cccc3[nH]2)c(-c2ccc(C)c(C)c2)s1 [Ex. 4.152]	2	40
C[C@@]1(c2nc3cc(C(F)(F)F)ccc3[nH]2)CCCN1C(=O)c1cc(Cl)ccc1-n1nccn1 [Ex. 5.166]	13	59
C=C1C[C@@H](c2nc3c(C)c(Cl)ccc3[nH]2)N(C(=O)c2nc(C)sc2-c2ccccc2)C1 [Ex. 6.41]	4	2
Cc1ccc(C(=O)N2CCC[C@@]2(C)c2nc3c(C)c(C)c(Br)cc3[nH]2)c(-n2nccn2)c1C [Ex. 5.267]	12	105
C=C1C[C@@H](c2nc3cc(OC)ccc3[nH]2)N(C(=O)c2nc(C3CC3)sc2-c2cccc(OC)c2)C1 [Ex. 6.31]	41	22
Cc1nc(C(=O)N2CCC[C@@]2(C)c2nc3c(F)c(F)ccc3[nH]2)c(-c2ccccc2)s1 [Ex. 5.206]	19	117
Cc1ccc(-n2cccn2)c(C(=O)N2CCC[C@@]2(C)c2nc3cc(F)c(Br)cc3[nH]2)c1 [Ex. 5.128]	20	219
COc1cc2nc([C@@H]3[C@@H](C)CCN3C(=O)c3ccccc3-n3nccn3)[nH]c2cc1OC [Ex. 4.49]	221	533
C=C1CC(c2nc3cc(SC)ccc3[nH]2)N(C(=O)c2cc(C)sc2-c2ccc(C)c(C)c2)C1 (stereo not drawn) [Ex. 6.73]	10	4
COc1ccc2nc([C@@H]3CCCN3C(=O)c3cc(C#N)ccc3-n3nccn3)[nH]c2c1 [Ex. 1.159]	903	23
Cc1ccc(-c2cccnc2)c(C(=O)N2CCC[C@@]2(C)c2nc3ccc(Cl)c(C)c3[nH]2)c1 [Ex. 5.216]	15	45
C=C1C[C@@H](c2nc3ccc(OC)cc3[nH]2)N(C(=O)c2cc(C)c(C)cc2-n2nccn2)C1 [Ex. 6.139]	137	0.6
Cc1ccc(-n2nccn2)c(C(=O)N2CCC[C@@]2(C)c2nc3c(C)c(Cl)ccc3n2C)n1 [Ex. 7.18]	1	4
Cc1nc(C(=O)N2CCCC2c2nc3cc(C(F)(F)F)c(F)cc3[nH]2)c(-c2cccc(Cl)c2)s1 (stereo not drawn) [Ex. 1.111]	32	243
Cc1c(Cl)ccc2[nH]c([C@]3(C)CCCN3C(=O)c3nc(-c4cccc(F)c4)sc3-c3ccc(F)cc3)nc12 [Ex. 5.234]	8	131
CSc1ccc2nc([C@@H]3CCCN3C(=O)c3cncnc3-c3ccc(Br)c(Cl)c3)[nH]c2c1 [Ex. 1.54]	726	80
Cc1ccc(-n2nccn2)c(C(=O)N2CC[C@H](C)[C@H]2c2nc3c(C(C)C)cccc3[nH]2)c1 [Ex. 4.38]	55	756
Cc1nc(C(=O)N2CC[C@H](C)[C@H]2c2nc3cc(CO)ccc3[nH]2)c(-c2cccc(Cl)c2)s1 [Ex. 4.27]	59	5590
COc1ccc2nc([C@@H]3CCCN3C(=O)c3cncnc3-c3ccc(Br)c(Cl)c3)[nH]c2c1 [Ex. 1.30]	624	147
Cc1nc(C(=O)N2CC[C@H](C)[C@H]2c2nc3cccc(C)c3[nH]2)c(-c2cccc(Cl)c2)s1 [Ex. 4.7]	2	603

Compound	IC50 [1] [nM]	IC50 [2] [nM]
COc1ccc2nc([C@@H]3CCCN3C(=O)c3nc(C)sc3-c3ccc(C)cc3)[nH]c2c1 [Ex. 1.22]	415	52
Cc1ccc(-c2cccnc2)c(C(=O)N2CCC[C@@]2(C)c2nc3ccc(Cl)c(C)c3[nH]2)c1 [Ex. 5.217]	98	274
C=C1C[C@@H](c2nc3cc(Cl)c(C(F)(F)F)cc3[nH]2)N(C(=O)c2cc(OC(F)(F)F)ccc2-n2nccn2)C1 [Ex. 6.185]	239	103
Cc1nc(C(=O)N2CC[C@H](C)[C@H]2c2nc3c(C(F)(F)F)cccc3[nH]2)c(-c2cc(F)cc(F)c2)s1 [Ex. 4.157]	13	1710
C=C1C[C@@H](c2nc3cc(OC)ccc3[nH]2)N(C(=O)c2nc(C)sc2-c2ccccc2)C1 [Ex. 6.3]	243	18
Cc1ccc(-c2ncccn2)c(C(=O)N2CC[C@H](C)[C@H]2c2nc3c(C)c(Cl)ccc3[nH]2)c1 [Ex. 4.178]	7	350
CO[C@H]1CN(C(=O)c2cc(OC(F)(F)F)ccc2-n2nccn2)C(C)(c2nc3c(C)c(Cl)ccc3[nH]2)C1 (stereo partly drawn) [Ex. 3.51]	94	44
COc1ccc2nc([C@@H]3CCCN3C(=O)c3cnc(C)nc3-c3ccc(Cl)c(Cl)c3)[nH]c2c1 [Ex. 1.28]	114	110
CO[C@@H]1C[C@@H](c2nc3c(C)cccc3[nH]2)N(C(=O)c2nc(C)sc2-c2cccc(Cl)c2)C1 [Ex. 3.7]	9	5
Cc1cc2[nH]c([C@@H]3[C@@H](C)CCN3C(=O)c3c(F)cccc3-c3ncccn3)nc2cc1Cl [Ex. 4.133]	25	359
Cc1ccc(-c2sccc2C(=O)N2CC[C@H](C)[C@H]2c2nc3c(C(F)(F)F)cccc3[nH]2)cc1C [Ex. 4.160]	2	27
Cc1cc2[nH]c([C@@H]3[C@@H](C)CCN3C(=O)c3cc(C#N)ccc3-c3ccccc3)nc2cc1Cl [Ex. 4.108]	7	419
COc1ccc(-n2nccn2)c(C(=O)N2CC[C@H](C)[C@H]2c2nc3cc(Cl)c(C)cc3[nH]2)c1 [Ex. 4.74]	4	78
COc1ccc2[nH]c([C@@H]3CCCN3C(=O)c3c(-n4nccn4)ccc(C)c3F)nc2c1 [Ex. 1.172]	1160	19
C=C1C[C@@H](c2nc3cc(C(C)(C)C)ccc3[nH]2)N(C(=O)c2cc(OC(F)(F)F)ccc2-n2nccn2)C1 [Ex. 6.169]	344	479
C=C1C[C@@H](c2nc3c(C)c(Cl)ccc3[nH]2)N(C(=O)c2cc(C)ccc2-n2nccn2)C1 [Ex. 6.42]	12	2
Cc1ccc(-n2nccn2)c(C(=O)N2CC[C@H](C)[C@H]2c2nc3cc(C)c(C)cc3[nH]2)c1 [Ex. 4.30]	12	155
Cc1ccc(-c2nc(C)sc2C(=O)N2CC[C@H](C)[C@H]2c2nc3cc(Cl)c(C)cc3[nH]2)cc1 [Ex. 4.79]	18	541
Cc1nc(C(=O)N2CCCC2c2nc3c(Br)cccc3[nH]2)c(-c2cccc(Cl)c2)s1 (stereo not drawn) [Ex. 1.106]	17	31
Cc1ccc(-n2nccn2)c(C(=O)N2CCC[C@@]2(C)c2nc3cc(C(C)(C)C)ccc3[nH]2)c1 [Ex. 5.13]	6	31

Compound	IC50 [1] [nM]	IC50 [2] [nM]
Cc1cccc2[nH]c([C@]3(C)CCCN3C(=O)c3cc(Cl)ccc3-n3nccn3)nc12 [Ex. 5.49]	85	114
CO[C@H]1CN(C(=O)c2nc(C)sc2-c2ccccc2)C(C)(c2nc3c(C)cccc3[nH]2)C1 (stereo partly drawn) [Ex. 3.29]	28	20
Cc1cc(C(=O)N2CCC[C@@]2(C)c2nc3cc(C)c(C)cc3[nH]2)c(-n2nccn2)cc1C [Ex. 5.58]	3	6
COc1ccc2nc([C@@H]3CCCN3C(=O)c3cnc(C)nc3-c3ccc(C)c(C)c3)[nH]c2c1 [Ex. 1.31]	195	78
COc1cc2nc([C@@H]3[C@@H](C)CCN3C(=O)c3ccccc3-c3ccc(C)cc3)[nH]c2cc1OC [Ex. 4.58]	66	2170
Cc1ccc(-c2ccc3c(c2)OCO3)c(C(=O)N2CCC[C@@]2(C)c2nc3cc(C(F)(F)F)c(Cl)cc3[nH]2)c1 [Ex. 5.156]	38	54
CO[C@H]1C[C@@H](c2nc3c(C)c(Cl)ccc3[nH]2)N(C(=O)c2nc(C)sc2-c2ccccc2)C1 [Ex. 3.5]	109	74
COc1ccc2nc([C@@H]3CCCN3C(=O)c3cc(Cl)ccc3-n3nccn3)[nH]c2c1 [Ex. 1.157]	419	10
C=C1CN(C(=O)c2ccccc2-c2ccccc2)C(C)(c2nc3cc(OC)ccc3[nH]2)C1 (stereo not drawn) [Ex. 6.150]	218	91
CSc1ccc2nc([C@@H]3CCCN3C(=O)c3nc(C4CC4)sc3-c3ccc(C)cc3)[nH]c2c1 [Ex. 1.41]	115	64
COc1ccc(-n2nccn2)c(C(=O)N2CCC[C@@]2(C)c2nc3cc(OC(F)(F)F)ccc3[nH]2)c1 [Ex. 5.237]	58	223
Cc1ccc(C(=O)N2CCC[C@@]2(C)c2nc3cc(C)c(C)cc3n2C)c(-n2nccn2)c1 [Ex. 7.11]	17	720
Cc1ccc(-n2nccn2)c(C(=O)N2CCC[C@@]2(C)c2nc3c(Cl)cccc3[nH]2)c1 [Ex. 5.26]	39	197
COc1cccc2nc([C@@H]3CCCN3C(=O)c3nc(C)sc3-c3cccc(Cl)c3)[nH]c12 [Ex. 1.11]	110	54
Cc1ccc(C(=O)N2CCC[C@@]2(C)c2nc3cc(C)c(C)cc3[nH]2)c(-n2nccn2)c1 [Ex. 5.56]	12	15
COc1cccc(-c2sc(C)nc2C(=O)N2CCC[C@@]2(C)c2nc3c(F)c(F)ccc3[nH]2)c1 [Ex. 5.213]	16	51
C=C1C[C@@H](c2nc3cc(OC)ccc3[nH]2)N(C(=O)c2cc(C)ccc2-n2nccn2)C1 [Ex. 6.12]	317	6
C=C1C[C@@H](c2nc3cc(C(C)(C)C)ccc3[nH]2)N(C(=O)c2cc(C)c(C)cc2-n2nccn2)C1 [Ex. 6.165]	9	3
CSc1cccc2nc([C@@H]3CCCN3C(=O)c3nc(C4CC4)sc3-c3ccccc3)[nH]c12 [Ex. 1.61]	21	21
COc1cc(C(=O)N2CCC[C@@]2(C)c2nc3cc(OC)c(OC)cc3[nH]2)c(-n2nccn2)cc1OC [Ex. 5.86]	94	85
